Assay results from patent publication US4939175A, “Use of N,N-dimethyl-1-[1-(4-chlorophenyl)cyclobutyl]-3-methylbutylamine” (priority 1988, dated 1990).

How the values were obtained:
[1] = system: spontaneous movement of mice; assay: Spontaneous movement of mice; parameters: species or system SlC:ddy male mice; conditions: mouse, in vivo
Method: Effect of the test samples on the sponteneous movement of mice
The test sample was administered orally to SlC:ddy male mice. Immediately after, the amount of movement activity of the test mice was measured for 16 hours, at the time of 1, 2, 4, 8 and 16 hours respectively after the oral administration, by means of spontaneous movement measuring system (displacement measuring type).
Methamphetamine was used as the reference drug and distilled water was used as control sample.
The obtained results are shown in FIG. 1, columns and bars represent the mean±S.D. and statistical significance was evaluated by the multiple comparison test of Dunnet's type.

memory and learning = assay: Effect on memory and learning in preclinical studies; type: in vivo
[2] = system: dopamine neuron, norepinephrine and serotonin neuron; assay: Activation of dopamine, norepinephrine and serotonin neuron
[3] = Japanese Unexamined Patent Publication No. 181,043 (1982); cited from earlier work

## CC(C)CC(N(C)C)C1(c2ccc(Cl)cc2)CCC1 (centres unmarked) [N,N-dimethyl-1-[1-(4-chlorophenyl)cyclobutyl]-3-methylbutylamine]
[1]
  spontaneous movement: increase of spontaneous movement
Memory and learning
  effect on memory and learning: intensive effect on memory and learning
[2]
  activation of dopamine neuron in addition to both norepinephrine and serotonin neuron: intensive activation of dopamine neuron in addition to both norepinephrine and serotonin neuron
  effect on dopamine activity: enhancing effect of dopamine activity
[3]
  therapeutical effect as an antidepressant: has a therapeutical effect as an antidepressant
